From PubChem BioAssay (NCI) come the findings set out here.

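Compound exposure: 48 hours, 5 concentrations, 96-well plates. TGI: concentration producing complete growth inhibition.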 Bounds are passed on as bounds.

Test systems include HT29 colon; HCT-116 colon; NCI-H23 lung; PC-3 prostate; 786-0 renal; A498 renal; M14 melanoma; MDA-N; CAKI-1 renal; NCI/ADR-RES ovarian; TK-10 renal; OVCAR-3 ovarian; MCF7 breast; BT-549 breast; SK-MEL-5 melanoma; SK-MEL-2 melanoma.
Common to all, as to assay: NCI tumour cell line growth inhibition, 48 h

In the case of `CC(C)CC(NC=O)C(=O)NC(Cc1ccccc1)NC(=O)CNC(=O)C(C)NC(=O)OC(C)(C)C` (stereo not drawn), the TGI in the assay on HT29 colon, in the assay with HCT-116 colon, in the assay with NCI-H23 lung, in the assay with PC-3 prostate, with 786-0 renal and in the assay on A498 renal was greater than 100 µM each time. In addition, the TGI with M14 melanoma, with MDA-N, in the assay on CAKI-1 renal, with NCI/ADR-RES ovarian, with TK-10 renal and in the assay with OVCAR-3 ovarian was greater than 100 µM throughout. The TGI in the assay with MCF7 breast, in the assay with BT-549 breast and in the assay with SK-MEL-5 melanoma was greater than 100 µM each time.
In the case of `N=c1oc2ccc([N+](=O)[O-])cc2cc1C(=O)Nc1ccccn1`, the TGI is greater than 100 µM in the assay on HT29 colon; greater than 100 µM in the assay on HCT-116 colon; greater than 100 µM with NCI-H23 lung; 43.9 µM in the assay with PC-3 prostate; 42.9 µM in the assay with 786-0 renal; greater than 100 µM in the assay with A498 renal. In addition, the TGI in the assay with M14 melanoma is greater than 100 µM; with MDA-N it was greater than 100 µM; with CAKI-1 renal, greater than 100 µM; in the assay with NCI/ADR-RES ovarian, greater than 100 µM; in the assay on SK-MEL-2 melanoma it was 43.4 µM; in the assay with OVCAR-3 ovarian, 65.8 µM. For the same compound, the TGI in the assay on MCF7 breast, in the assay on BT-549 breast and with SK-MEL-5 melanoma was greater than 100 µM in each case.
Consider `CCn1c(SCC(=O)NNC(=S)Nc2ccc(Cl)cc2)nc2ccccc2c1=O`, for which the TGI in the assay on HCT-116 colon is greater than 100 µM; in the assay with NCI-H23 lung, greater than 100 µM; in the assay on PC-3 prostate it was greater than 100 µM; in the assay on 786-0 renal it was greater than 100 µM; in the assay on A498 renal, 98.3 µM; in the assay with M14 melanoma, greater than 100 µM. Besides, the TGI in the assay on MDA-N, in the assay with CAKI-1 renal, in the assay on NCI/ADR-RES ovarian, with TK-10 renal, in the assay on SK-MEL-2 melanoma and in the assay with OVCAR-3 ovarian was greater than 100 µM in each case. Besides, the TGI with MCF7 breast, with BT-549 breast and in the assay with SK-MEL-5 melanoma was greater than 100 µM throughout.
For the compound `CN1C(=O)CN=C(c2ccccc2F)c2cc(N=C=S)ccc21`, the TGI in the assay with HT29 colon, in the assay on HCT-116 colon, in the assay on NCI-H23 lung, in the assay on PC-3 prostate, with 786-0 renal and with A498 renal was greater than 100 µM in each case. Also, the TGI was greater than 100 µM with M14 melanoma; greater than 100 µM in the assay with MDA-N; 25.2 µM with CAKI-1 renal; greater than 100 µM in the assay on NCI/ADR-RES ovarian; greater than 100 µM with TK-10 renal; greater than 100 µM in the assay with SK-MEL-2 melanoma. Moreover, the TGI with OVCAR-3 ovarian, in the assay with MCF7 breast and in the assay on BT-549 breast was greater than 100 µM each time.
`O=C1CCCC(=O)N1n1c(Cc2ccc(Cl)cc2)n[nH]c1=O`: the TGI with HT29 colon, with HCT-116 colon, in the assay on NCI-H23 lung, in the assay on PC-3 prostate, in the assay on 786-0 renal and with M14 melanoma was greater than 100 µM throughout. Also, the TGI in the assay with MDA-N, with CAKI-1 renal, with NCI/ADR-RES ovarian, in the assay with TK-10 renal, with SK-MEL-2 melanoma and in the assay with OVCAR-3 ovarian was greater than 100 µM each time. For the same compound, the TGI in the assay with MCF7 breast, in the assay on BT-549 breast and with SK-MEL-5 melanoma was greater than 100 µM each time.
`O=C1C=Cc2c1csc2Br`: the TGI in the assay on HT29 colon is greater than 100 µM; with HCT-116 colon, greater than 100 µM; with NCI-H23 lung, greater than 100 µM; in the assay on PC-3 prostate, greater than 100 µM; in the assay with 786-0 renal it was greater than 100 µM; in the assay on M14 melanoma it was 47.2 µM. The TGI with MDA-N, in the assay on CAKI-1 renal, with NCI/ADR-RES ovarian, in the assay with TK-10 renal, in the assay with SK-MEL-2 melanoma and in the assay on OVCAR-3 ovarian was greater than 100 µM each time. The results for the TGI in the assay on MCF7 breast, with BT-549 breast and with SK-MEL-5 melanoma were 95.9 µM, greater than 100 µM and greater than 100 µM, respectively.
For `COc1ccc(N2C(=O)C(C#N)=C(SC)C(C#N)C2=O)cc1` (stereo not drawn), the TGI in the assay with HT29 colon, with HCT-116 colon, with PC-3 prostate, in the assay with 786-0 renal, in the assay on A498 renal and in the assay on M14 melanoma was greater than 100 µM each time. The TGI in the assay with MDA-N, in the assay with CAKI-1 renal, with NCI/ADR-RES ovarian, with TK-10 renal, in the assay on SK-MEL-2 melanoma and in the assay with MCF7 breast was greater than 100 µM in each case. For the same compound, the TGI in the assay on BT-549 breast and in the assay with SK-MEL-5 melanoma was greater than 100 µM in each case.
Take `Cc1ccc(S(=O)(=O)Nn2c(C)cc3ccc(S(=O)(=O)Nc4ccccc4[N+](=O)[O-])cc3c2=O)cc1`: the TGI in the assay with HT29 colon, in the assay with HCT-116 colon, in the assay on NCI-H23 lung, in the assay on PC-3 prostate, in the assay on 786-0 renal and with M14 melanoma was greater than 100 µM in each case. Further, the TGI with MDA-N, in the assay on CAKI-1 renal, in the assay on NCI/ADR-RES ovarian, in the assay on TK-10 renal, in the assay with SK-MEL-2 melanoma and in the assay with OVCAR-3 ovarian was greater than 100 µM in each case. The TGI in the assay with MCF7 breast and in the assay on BT-549 breast was greater than 100 µM each time.
Consider `CCSC1=C(C#N)C2(CCCCC2)C2=C(CC(C)(C)CC2=O)N1`, for which the TGI in the assay on HT29 colon was greater than 100 µM; in the assay on HCT-116 colon, greater than 100 µM; in the assay with NCI-H23 lung, greater than 100 µM; in the assay on PC-3 prostate it was greater than 100 µM; in the assay on 786-0 renal, greater than 100 µM; in the assay with A498 renal, 64.6 µM. The TGI with M14 melanoma, with MDA-N, in the assay with CAKI-1 renal, with NCI/ADR-RES ovarian, in the assay with TK-10 renal and in the assay on SK-MEL-2 melanoma was greater than 100 µM in each case. Besides, the TGI is greater than 100 µM with MCF7 breast, 60.1 µM in the assay on BT-549 breast and greater than 100 µM in the assay with SK-MEL-5 melanoma.
Consider `N#CC12CC=C(c3ccccc3)N=C1NC(c1ccccc1)=CC2` (stereo not drawn), for which the TGI in the assay on HT29 colon was greater than 100 µM; in the assay with HCT-116 colon, greater than 100 µM; with NCI-H23 lung, greater than 100 µM; in the assay on PC-3 prostate it was greater than 100 µM; in the assay on 786-0 renal, greater than 100 µM; in the assay with A498 renal, 97 µM. The TGI in the assay on M14 melanoma, with MDA-N, in the assay on NCI/ADR-RES ovarian, with TK-10 renal, in the assay on SK-MEL-2 melanoma and in the assay on OVCAR-3 ovarian was greater than 100 µM throughout. For the same compound, the TGI in the assay with MCF7 breast is greater than 100 µM; with BT-549 breast it was greater than 100 µM; with SK-MEL-5 melanoma, 39.4 µM.
